Experimental data: US10537725B2, “Ultrasound-assisted convection enhanced delivery of compounds in vivo with a transducer cannula assembly” (CORNELL UNIVERSITY, priority 2010, dated 2020)

Test: Evans blue dye volume distribution in rat brain after CED or ultrasound-assisted CED (UCED) infusion into the caudate
Type: in vivo, Sprague-Dawley rats
Conditions: for total distribution volume of EBD: 30 min
Description: A total of 40 Sprague-Dawley rats (350 to 450 g) were divided into two equal groups and further divided into four equal subgroups (n=5 in each). The rats were anesthetized, secured into ear bars on a stereotaxic apparatus, and a craniotomy was performed. The caudate of the rat brain was infused with 0.25 wt % Evans blue dye (EBD) in Phosphate-Buffered Saline (PBS) at two different infusion rates of 0.25 μL/min for group 1, and 0.5 μL/min for group 2. […] Using the TCA without ultrasound, the four control subgroups were infused without and with microbubbles (CED and CED+MB). The four UCED subgroups (UCED and UCED+MB) followed the same protocol with the addition of simultaneous continuous wave 1.34 MHz ultrasound operating at a total acoustic power of 0.11+/−0.005 W and peak spatial intensity at the cannula tip of I=49.7 mW/cm^2. Frozen sectioning and histology were performed on the brains, and infusion distribution was three-dimensionally reconstructed using MatLab® analysis. Hematoxylin and Eosin (H&E) staining was used to assess tissue damage and morphological changes to the brain. The application of UCED and UCED+MB improved EBD total volumetric distribution by 2.24 to 3.25 and 1.16 to 1.70 times, respectively (p<0.001). On gross and histological examination, no ultrasound or microbubble related damage to the brain tissue was found. The TCA and battery-powered ultrasound device show promise to improve the distribution of infusate during CED in clinical practice.
Rats were anesthetized and euthanized by procedures approved by the Institutional Animal Care and Use Committee (IACUC) at Cornell University. A total of 40 Sprague-Dawley rats (350 to 450 g) were divided into two groups (designated Groups 1 and 2) with four subgroups (5 rats in each subgroup). Animals were anesthetized by inhalation of isoflurane gas and secured in a stereotaxic frame. The head was shaved, 0.5 ml of bupivicaine was applied under the skin as a local anesthetic and an incision was made in the skin along the dorsal midline of the skull. A small craniotomy (6-7 mm diameter) was made over the left side of the exposed skull using a dental drill. The TCA was guided using a micromanipulator to +0 mm anterior, +3 mm lateral and −5.5 mm ventral from bregma, lowered at 0.25 mm per second into the caudate of the rat brain and allowed to equilibrate for two minutes. 1-2 ml of artificial cerebral spinal fluid (aCSF) and a gel-foam dam was used to couple acoustic energy from the face of the TCA into the rodent brain. The TCA was powered on with the pocket-sized ultrasound system at the +/−11.1 V setting and infusion began.
For each rat, the entire experiment lasted a total of 30 min. The control subgroups of CED and CED+MB (n=5 in each) were infused using the TCA with no ultrasound therapy for 30 min. For the experimental subgroups of UCED and UCED+MB (n=5 in each), infusion and ultrasound exposure at an acoustic power of 0.11+/−0.005 W, and TCA face intensity of 0.095 W/cm^2 which corresponded to a cannula tip intensity of 0.0497 W/cm^2 for 30 min was applied simultaneously. Filtered Evan's blue dye (EBD) 0.25 wt % in phosphate buffered saline (PBS) without or with 5×10^5 stabilized microbubbles per μL with median diameter of 2.5 μm (Targestar™-P, Targeson Inc.) was infused using a microinfusion pump (Worker Bee™, Bioanalytical Systems, Inc.).
The starting infusion flow rate for the experiments of Group 1 was 0.05 μL/min for 5 min; the infusion flow rate was then increased to 0.1 μL/min for an additional 5 min, to a final flow rate of 0.25 μL/min for 20 min. The starting infusion flow rate of Group 2 was 0.1 μL/min for 5 min; the infusion flow rate was then increased to 0.25 μL/min for an additional 5 min, to a final flow rate of 0.5 μL/min for 20 min.
After 30 min of simultaneous infusion and ultrasound therapy the experiment was stopped. The TCA was left in the tissue for 1-2 min before being removed while euthanasia via cardiac urethane injection was performed. […]

total distribution volume of EBD (group 1, 0.25 μL/min infusion, left caudate, CED): 13.6 mm^3 | total distribution volume of EBD (group 1, 0.25 μL/min infusion, left caudate, CED+MB): 15.9 mm^3 | total distribution volume of EBD (group 1, 0.25 μL/min infusion, left caudate, UCED): 33.1 mm^3 | total distribution volume of EBD (group 1, 0.25 μL/min infusion, left caudate, UCED+MB): 27.0 mm^3 | total distribution volume of EBD (group 1, 0.25 μL/min infusion, left hemisphere, CED (no ultrasound)): 20.6 mm^3 | total distribution volume of EBD (group 1, 0.25 μL/min infusion, left hemisphere, CED+MB (microbubbles, no ultrasound)): 19.7 mm^3 | total distribution volume of EBD (group 1, 0.25 μL/min infusion, left hemisphere, UCED (1.34 MHz ultrasound)): 46.3 mm^3 | total distribution volume of EBD (group 1, 0.25 μL/min infusion, left hemisphere, UCED+MB): 26.9 mm^3 | increase of EBD distribution volume (group 1, 0.25 μL/min, left caudate, UCED compared to CED): 2.44 × | increase of EBD distribution volume (group 1, 0.25 μL/min, left caudate, UCED+MB compared to CED+MB): 1.7 × | increase of EBD distribution volume (group 1, 0.25 μL/min, left hemisphere, UCED compared to CED): 2.24 × | increase of EBD distribution volume (group 1, 0.25 μL/min, left hemisphere, UCED+MB compared to CED+MB): 1.37 × | total distribution volume of EBD (group 2, 0.5 μL/min infusion, left caudate, UCED): 70.2 mm^3 | total distribution volume of EBD (group 2, 0.5 μL/min infusion, left caudate, UCED+MB): 30.2 mm^3 | total distribution volume of EBD (group 2, 0.5 μL/min infusion, left hemisphere, CED): 37.4 mm^3 | total distribution volume of EBD (group 2, 0.5 μL/min infusion, left hemisphere, CED+MB): 31.9 mm^3 | total distribution volume of EBD (group 2, 0.5 μL/min infusion, left hemisphere, UCED): 111 mm^3 | total distribution volume of EBD (group 2, 0.5 μL/min infusion, left hemisphere, UCED+MB): 37.1 mm^3 | increase of EBD distribution volume (group 2, 0.5 μL/min, left caudate, UCED compared to CED): 3.25 × | increase of EBD distribution volume (group 2, 0.5 μL/min, left caudate, UCED+MB compared to CED+MB): 1.54 × | increase of EBD distribution volume (group 2, 0.5 μL/min, left hemisphere, UCED compared to CED): 2.96 × | increase of EBD distribution volume (group 2, 0.5 μL/min, left hemisphere, UCED+MB compared to CED+MB): 1.16 ×
Structure (SMILES): Cc1cc(-c2ccc(/N=N/c3ccc4c(S(=O)(=O)O)cc(S(=O)(=O)O)c(N)c4c3O)c(C)c2)ccc1/N=N/c1ccc2c(S(=O)(=O)O)cc(S(=O)(=O)O)c(N)c2c1O [EBD, Evans blue dye]
